Source: ChEMBL document CHEMBL1201862, “PubChem BioAssay data set” (2004)
Activity calls are given as the source filed them.

What was measured:
[1] = target: T1, Carboxy-terminal domain RNA polymerase II polypeptide A small phosphatase 1 (Homo sapiens, UniProt Q9GZU7); assay: inhibitors of CTDSP1, concentration-response testing, biochemical assay, absorbance-based, actives from ultra-high-throughput screening (AID 540297); format: functional
T1 sequence (Q9GZU7 whole entry): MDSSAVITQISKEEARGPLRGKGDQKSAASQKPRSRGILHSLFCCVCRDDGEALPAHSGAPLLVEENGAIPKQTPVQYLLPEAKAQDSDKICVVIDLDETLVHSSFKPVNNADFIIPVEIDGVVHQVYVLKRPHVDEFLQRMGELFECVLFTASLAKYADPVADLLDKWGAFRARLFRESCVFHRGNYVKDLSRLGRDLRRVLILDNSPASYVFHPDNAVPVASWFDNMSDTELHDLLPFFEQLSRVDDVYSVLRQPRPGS

[2] = NIH-3T3 fibroblast cytotoxicity, dose response, cytotoxicity control, cell-based, fluorescence, Alamar Blue, secondary assay (AID 2327); format: functional;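 note: NIH-3T3 mouse fibroblasts cultured with fluconazole at 8 µg/mL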
[3] = target: T2, Heat shock factor protein 1 (Mus musculus, UniProt P38532); assay: inhibition of MG132-induced HSE-luciferase signal, confirmation, cell-based, NIH3T3, luminescence, dose retest (AID 2382); format: functional;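 note: NIH3T3 fibroblasts with HSF1-driven luciferase reporter stressed by proteasome inhibitor MG132; luminescence from HSF1-driven luciferase expression after 8 hours of MG132 stress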
T2 sequence (P38532 whole entry): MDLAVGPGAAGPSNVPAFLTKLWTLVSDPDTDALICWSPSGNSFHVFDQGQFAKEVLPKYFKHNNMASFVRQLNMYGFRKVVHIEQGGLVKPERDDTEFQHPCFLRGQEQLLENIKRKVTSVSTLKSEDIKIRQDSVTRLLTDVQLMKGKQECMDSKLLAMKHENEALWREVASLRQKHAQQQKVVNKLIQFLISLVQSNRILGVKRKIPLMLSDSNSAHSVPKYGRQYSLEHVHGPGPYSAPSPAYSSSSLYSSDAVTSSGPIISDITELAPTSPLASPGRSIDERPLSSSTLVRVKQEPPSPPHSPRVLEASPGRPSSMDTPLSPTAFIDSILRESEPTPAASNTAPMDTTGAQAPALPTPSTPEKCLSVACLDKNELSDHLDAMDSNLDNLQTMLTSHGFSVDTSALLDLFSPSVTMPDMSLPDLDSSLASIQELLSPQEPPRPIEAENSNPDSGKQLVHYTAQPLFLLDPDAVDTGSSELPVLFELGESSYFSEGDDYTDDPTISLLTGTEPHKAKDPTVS

[4] = C. albicans growth with fluconazole, confirmation, fluorescence, retest (AID 2467); format: functional, cell-based
[5] = inhibitors of intracellular T. cruzi replication, confirmation, NIH3T3 host cells, beta-gal luminescence (AID 2044); format: functional, cell-based;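 note: intracellular parasites grown in NIH/3T3 mouse fibroblasts as host cells; luminescent beta-galactosidase reporter signal from transgenic T. cruzi replicating inside host cells; inhibitors lower the luminescence signal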
[6] = cytotoxicity toward NIH3T3 fibroblasts, dose response, counter-screen, cell-based, ATP luminescence, mouse fibroblasts (AID 2010); format: functional;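 note: cells exposed to compound for about 90 hours before reading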
[7] = target: T3, Microphthalmia-associated transcription factor (Homo sapiens, UniProt O75030); assay: TRPM1 promoter luciferase signal decrease, dose response, MITF inhibitor project, cell-based, SK-MEL-5, cherry-picked, set 3 (AID 493073); format: functional
T3 sequence (O75030 whole entry): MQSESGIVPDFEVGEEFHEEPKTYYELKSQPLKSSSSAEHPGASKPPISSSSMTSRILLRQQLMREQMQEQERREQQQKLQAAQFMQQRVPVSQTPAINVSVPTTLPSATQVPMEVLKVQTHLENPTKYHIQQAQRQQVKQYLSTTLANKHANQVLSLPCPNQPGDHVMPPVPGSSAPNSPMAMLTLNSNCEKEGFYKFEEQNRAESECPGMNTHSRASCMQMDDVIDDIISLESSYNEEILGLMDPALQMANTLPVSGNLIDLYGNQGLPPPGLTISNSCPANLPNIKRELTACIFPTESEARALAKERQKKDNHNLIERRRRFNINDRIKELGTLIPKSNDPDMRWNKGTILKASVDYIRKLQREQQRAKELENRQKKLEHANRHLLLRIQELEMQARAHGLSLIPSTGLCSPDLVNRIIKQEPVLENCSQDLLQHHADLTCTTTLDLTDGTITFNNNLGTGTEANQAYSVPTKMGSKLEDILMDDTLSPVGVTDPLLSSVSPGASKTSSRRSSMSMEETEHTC

[8] = target: T4, Replicative DNA helicase DnaB (Mycobacterium tuberculosis, UniProt P9WMR3); assay: DnaB intein splicing inhibitors, dose response, biochemical, cell-free fluorescence (AID 449749); format: functional
T4 sequence (P9WMR3 whole entry): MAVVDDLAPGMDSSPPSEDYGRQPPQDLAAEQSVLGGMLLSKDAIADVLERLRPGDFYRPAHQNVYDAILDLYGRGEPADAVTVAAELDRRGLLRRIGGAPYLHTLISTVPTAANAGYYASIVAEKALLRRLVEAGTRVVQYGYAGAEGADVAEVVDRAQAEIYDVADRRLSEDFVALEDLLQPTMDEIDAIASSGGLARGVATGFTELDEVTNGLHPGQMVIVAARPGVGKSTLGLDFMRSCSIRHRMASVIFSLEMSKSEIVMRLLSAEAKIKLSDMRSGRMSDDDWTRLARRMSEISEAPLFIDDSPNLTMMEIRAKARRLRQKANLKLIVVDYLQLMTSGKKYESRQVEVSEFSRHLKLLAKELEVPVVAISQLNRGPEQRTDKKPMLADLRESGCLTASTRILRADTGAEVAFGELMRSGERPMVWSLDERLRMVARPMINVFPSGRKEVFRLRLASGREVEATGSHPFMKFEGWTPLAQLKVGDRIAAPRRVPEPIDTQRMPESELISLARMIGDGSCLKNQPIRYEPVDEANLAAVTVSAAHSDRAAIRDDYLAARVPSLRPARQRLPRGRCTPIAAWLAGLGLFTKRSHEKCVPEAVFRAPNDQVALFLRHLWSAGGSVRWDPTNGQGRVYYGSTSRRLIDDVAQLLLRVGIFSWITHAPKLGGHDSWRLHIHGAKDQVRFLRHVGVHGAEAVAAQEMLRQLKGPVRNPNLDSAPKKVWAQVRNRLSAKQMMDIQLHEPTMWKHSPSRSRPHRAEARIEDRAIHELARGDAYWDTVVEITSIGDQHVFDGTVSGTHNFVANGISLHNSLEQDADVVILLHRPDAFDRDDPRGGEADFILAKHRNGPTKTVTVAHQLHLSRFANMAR

[9] = target: T5, Protein RecA (Mycobacterium tuberculosis, UniProt P9WHJ3); assay: Fluorescence Cell-Free Homogeneous Dose Retest to Identify Inhibitors of RecA-Intein Splicing Activity. [Related pubchem assays (depositor defined):AID2097, AID2223, AID489010, AID492950]; format: functional
T5 sequence (P9WHJ3 whole entry): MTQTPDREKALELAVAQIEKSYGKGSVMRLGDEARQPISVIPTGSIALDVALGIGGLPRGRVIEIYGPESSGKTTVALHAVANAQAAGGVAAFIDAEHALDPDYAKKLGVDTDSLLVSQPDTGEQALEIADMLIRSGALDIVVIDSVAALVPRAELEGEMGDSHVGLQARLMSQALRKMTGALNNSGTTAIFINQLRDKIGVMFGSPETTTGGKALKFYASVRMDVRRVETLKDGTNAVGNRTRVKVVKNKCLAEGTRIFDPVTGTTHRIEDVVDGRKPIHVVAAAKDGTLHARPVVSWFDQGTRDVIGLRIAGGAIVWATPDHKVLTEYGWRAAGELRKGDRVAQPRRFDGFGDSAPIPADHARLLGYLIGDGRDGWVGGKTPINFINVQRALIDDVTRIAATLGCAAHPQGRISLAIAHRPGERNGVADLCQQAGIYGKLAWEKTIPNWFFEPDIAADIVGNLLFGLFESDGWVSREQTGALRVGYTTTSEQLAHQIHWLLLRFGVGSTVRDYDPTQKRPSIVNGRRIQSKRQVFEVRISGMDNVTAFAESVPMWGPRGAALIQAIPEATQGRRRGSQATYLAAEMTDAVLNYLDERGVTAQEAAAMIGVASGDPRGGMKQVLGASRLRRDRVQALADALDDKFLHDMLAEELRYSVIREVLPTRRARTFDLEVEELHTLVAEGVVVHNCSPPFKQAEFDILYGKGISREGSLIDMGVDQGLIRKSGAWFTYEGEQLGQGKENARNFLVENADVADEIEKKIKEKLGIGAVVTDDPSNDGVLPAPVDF

[10] = test system: BJ; assay: cytotoxicity toward BJ-TERT fibroblasts, dose response, cell-based, RAS-independent, luminescence (AID 1933); format: functional; settings: Homo sapiens
[11] = test system: BJ; assay: cells; format: functional, cell-based; settings: Homo sapiens
[12] = test system: BJ; assay: cytotoxicity toward BJ-TERT-LT-ST fibroblasts, dose response, cell-based, RAS-independent, luminescence (AID 1935); format: functional; settings: Homo sapiens;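 note: BJ fibroblasts immortalized with TERT plus LT and ST oncogenes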
[13] = cytotoxicity toward DRD oncogenic fibroblasts, dose response, cell-based, non-viral oncogenic, luminescence (AID 1934); format: functional; settings: Homo sapiens
[14] = cytotoxicity in HEK-293T cells, dose response, cytotoxicity control for TCR NF-kB inhibitor project, luminescence, T-cell screen hits (AID 489026); format: functional, cell-based;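 note: cells exposed to compound about 14 hours before the viability readout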
[15] = target: Cytochrome P450 2C9 (Homo sapiens, UniProt P11712)
Cytochrome P450 2C9, sequence (P11712 whole entry): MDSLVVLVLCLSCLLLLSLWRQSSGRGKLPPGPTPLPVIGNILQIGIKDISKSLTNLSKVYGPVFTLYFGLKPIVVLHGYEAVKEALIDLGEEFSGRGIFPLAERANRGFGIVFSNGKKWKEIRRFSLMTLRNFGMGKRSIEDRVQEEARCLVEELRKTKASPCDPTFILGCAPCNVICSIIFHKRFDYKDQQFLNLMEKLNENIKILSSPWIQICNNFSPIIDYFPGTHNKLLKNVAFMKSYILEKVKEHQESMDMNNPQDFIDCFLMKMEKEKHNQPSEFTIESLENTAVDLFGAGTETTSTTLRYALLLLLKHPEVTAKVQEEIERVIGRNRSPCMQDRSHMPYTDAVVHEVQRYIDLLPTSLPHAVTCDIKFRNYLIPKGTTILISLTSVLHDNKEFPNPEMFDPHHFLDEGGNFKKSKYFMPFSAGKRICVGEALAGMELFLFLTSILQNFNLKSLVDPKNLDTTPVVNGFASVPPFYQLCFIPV

[16] = test system: INS1; assay: beta cell apoptosis inhibitors, cytokine rescue, dose response, luminescence, retest (AID 449756); format: functional, cell-based; settings: Rattus norvegicus;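 note: cell death triggered by IL-1 beta plus TNF-alpha plus IFN-gamma mixture; protective hits raise ATP signal compared with cytokine alone wells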
[17] = target: Genome polyprotein (dengue virus type 2, UniProt P29990); assay: Dengue-2 NS5 methyltransferase inhibitors, primary screen, biochemical, confirmation dose response (AID 588689); format: functional
Genome polyprotein, sequence (P29990 2492-3391 limits assumed): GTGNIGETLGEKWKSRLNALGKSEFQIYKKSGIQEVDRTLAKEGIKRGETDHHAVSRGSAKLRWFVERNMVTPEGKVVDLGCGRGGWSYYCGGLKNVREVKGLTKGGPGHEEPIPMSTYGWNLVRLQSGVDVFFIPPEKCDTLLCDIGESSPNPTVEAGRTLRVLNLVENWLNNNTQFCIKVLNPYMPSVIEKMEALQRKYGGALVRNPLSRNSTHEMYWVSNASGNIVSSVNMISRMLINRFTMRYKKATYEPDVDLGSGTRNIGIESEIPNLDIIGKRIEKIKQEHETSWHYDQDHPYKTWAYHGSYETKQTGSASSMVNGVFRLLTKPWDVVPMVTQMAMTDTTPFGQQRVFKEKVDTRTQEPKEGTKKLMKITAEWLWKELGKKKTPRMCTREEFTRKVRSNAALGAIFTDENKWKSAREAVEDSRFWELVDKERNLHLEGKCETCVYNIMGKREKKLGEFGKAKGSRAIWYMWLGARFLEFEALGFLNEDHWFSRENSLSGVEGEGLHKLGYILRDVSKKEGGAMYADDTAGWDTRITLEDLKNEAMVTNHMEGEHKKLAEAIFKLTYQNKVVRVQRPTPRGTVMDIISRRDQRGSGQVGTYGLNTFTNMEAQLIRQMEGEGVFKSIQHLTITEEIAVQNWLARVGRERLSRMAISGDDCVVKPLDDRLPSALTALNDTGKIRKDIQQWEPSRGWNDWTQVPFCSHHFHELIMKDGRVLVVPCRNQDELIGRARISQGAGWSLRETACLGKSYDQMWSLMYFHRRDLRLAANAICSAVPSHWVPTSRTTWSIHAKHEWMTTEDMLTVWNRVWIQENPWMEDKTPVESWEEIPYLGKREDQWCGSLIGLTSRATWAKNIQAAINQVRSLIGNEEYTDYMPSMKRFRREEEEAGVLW

[18] = target: T6, Calpain-2 catalytic subunit (Sus scrofa, UniProt P43367); assay: pig calpain II inhibitor potency, dose response, biochemical, fluorogenic peptide substrate (AID 1420); format: functional
T6 sequence (P43367 whole entry): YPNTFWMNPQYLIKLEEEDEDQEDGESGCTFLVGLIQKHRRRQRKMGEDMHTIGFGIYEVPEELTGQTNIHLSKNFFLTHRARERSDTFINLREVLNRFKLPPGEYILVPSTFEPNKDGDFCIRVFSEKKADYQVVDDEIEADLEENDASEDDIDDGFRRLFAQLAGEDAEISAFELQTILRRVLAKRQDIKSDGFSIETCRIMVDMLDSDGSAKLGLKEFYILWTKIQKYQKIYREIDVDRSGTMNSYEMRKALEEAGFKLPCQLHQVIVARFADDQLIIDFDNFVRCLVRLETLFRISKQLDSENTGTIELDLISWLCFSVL

[19] = Luminescence Cell-Based Dose Retest to Confirm Inhibitors of Cancer Stem Cells. [Related pubchem assays (depositor defined):AID2717, AID2721]; format: functional; settings: Homo sapiens
[20] = target: Heat shock protein HSP 90-alpha (Homo sapiens, UniProt P07900); format: functional, organism-based
[21] = target: Large T antigen (Simian virus 40, UniProt P03070); format: functional, Betapolyomavirus macacae;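 note: Confirmatory-stage PubChem screen for compounds that inhibit SV40 T antigen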
Large T antigen, sequence (P03070 whole entry): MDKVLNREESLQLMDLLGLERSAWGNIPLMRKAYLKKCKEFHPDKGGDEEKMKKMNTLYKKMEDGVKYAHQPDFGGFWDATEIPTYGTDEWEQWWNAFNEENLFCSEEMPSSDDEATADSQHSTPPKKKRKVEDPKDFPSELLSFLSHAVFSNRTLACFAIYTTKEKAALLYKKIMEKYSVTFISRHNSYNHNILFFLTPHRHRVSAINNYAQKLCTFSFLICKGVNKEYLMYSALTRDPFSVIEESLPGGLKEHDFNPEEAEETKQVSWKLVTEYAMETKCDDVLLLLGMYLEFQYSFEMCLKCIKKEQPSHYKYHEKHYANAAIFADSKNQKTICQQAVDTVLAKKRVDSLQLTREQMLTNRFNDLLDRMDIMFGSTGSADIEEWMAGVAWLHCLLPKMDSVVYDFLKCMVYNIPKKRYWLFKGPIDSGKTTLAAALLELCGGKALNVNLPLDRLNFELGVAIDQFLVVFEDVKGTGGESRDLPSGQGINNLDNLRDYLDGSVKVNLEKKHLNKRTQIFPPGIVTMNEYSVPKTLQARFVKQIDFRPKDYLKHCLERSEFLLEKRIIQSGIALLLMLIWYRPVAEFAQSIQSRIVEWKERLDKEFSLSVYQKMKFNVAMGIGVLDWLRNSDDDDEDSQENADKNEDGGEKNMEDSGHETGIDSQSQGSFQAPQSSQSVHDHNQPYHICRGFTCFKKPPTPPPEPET

[22] = test system: P388/ADR; assay: cells; format: functional; settings: Mus musculus
[23] = test system: P388; assay: cells; format: functional; settings: Mus musculus

## O=C(Nc1ccc(F)cc1)c1cccc(N2C(=O)c3ccccc3C2=O)c1
[1]
  IC50: 11.1 µM (active)

## O=C(CCl)Nc1ccc(-c2ccccc2)cc1
[2]
  EC50: 4.59 µM (inconclusive)
[3]
  EC50: 9.64 µM (active)
[4]
  EC50: 1.77 µM (active)
[5]
  EC50: 1.69 µM (active)
[6]
  EC50: < 6 µM (inconclusive)
[7]
  AC50: 7.3 µM (active)
[8]
  AC50: 20.5 µM (active)
[9]
  EC50: 0.587 µM (active)

## Cc1ccc(C(=O)c2cc([N+](=O)[O-])ccc2N2CCOCC2)cc1C
[10]
  EC50: 3.06 µM (active)
[11]
  EC50: 73.8 µM (inconclusive)
[12]
  EC50: 1.75 µM (active)
[13]
  EC50: 1.6 µM (inconclusive)
[14]
  IC50: > 80 µM (inactive)

## CSc1ccccc1N1CCN(C(=O)Nc2ccc3c(c2)NC(=O)CO3)CC1
[15]
  AC50: inconclusive

## C=C1c2cccc(OC)c2O[C@H](C(=O)OCC)[C@@H]1CC(CC)CCCC (some centres not stated)
[1]
  IC50: 52.1 µM (active)

## C[N+]1=C(/C=C/Nc2ccccc2Cl)C(C)(C)c2ccccc21
[16]
  AC50: 7.84 µM (active)
[1]
  IC50: 5.96 µM (active)

## COc1cc(/C=C2\SC(=S)N(CCCCC(=O)O)C2=O)ccc1OS(=O)(=O)c1ccc(C)cc1
[17]
  IC50: 39.8 µM (active)
[1]
  IC50: 4.16 µM (active)

## O=C1C2CCCCC2C(=O)N1c1ccc(NC2CCN(Cc3ccccc3)CC2)c([N+](=O)[O-])c1 (configuration not stated)
[18]
  IC50: > 50 µM (not active)

## COc1ccc2cc3cc(C(=O)NCc4ccco4)oc3nc2c1
[1]
  IC50: 10.1 µM (active)

## CC(C)Oc1ccc(C(=O)/C=C2/C(=O)Nc3ccccc32)cc1
[19]
  AC50: 4.39 µM (active)
[20]
  AC50: 1.94 µM (active)

## CCCc1ccc(C(=O)NNC(=O)c2ccc(Br)cc2)cc1
[1]
  IC50: 5.88 µM (active)

## CCCCOc1ccc(CNC(=O)NS(=O)(=O)c2ccc(OCC(C)C)cc2)cc1
[1]
  IC50: 14.8 µM (active)

## CCN(C(=O)C1CCCN(c2nc(-c3ccc(OC)cc3)no2)C1)c1ccc(OC)cc1 (configuration not stated)
[20]
  AC50: 7.81 µM (active)

## COc1cccc(NC(S)=Nc2ccc(O)cc2)c1
[21]
  IC50: 5.64 µM (active)

## O=C(/C=C/c1ccccc1)CCN1CCCCC1
[20]
  AC50: 3.9 µM (active)

## O=S(=O)(c1c(F)cccc1F)N(CCc1ccc(F)cc1)C[C@@H](O)COCc1ccccc1
[20]
  AC50: 0.392 µM (active)

## CCC(C(C)N1CC(=O)NC(=O)C1)N1CC(=O)NC(=O)C1 (configuration not stated)
[22]
  GI50: 6.12 µM (inactive)
[23]
  GI50: < 0.0316 µM (active)

## O=C(O)C1Cc2c([nH]c3ccccc23)C=N1 (configuration not stated)
[22]
  GI50: > 100 µM (inactive)
[23]
  GI50: > 100 µM (inactive)

## CCOc1cc(/C=N/Nc2ccc(C(=O)O)cc2)ccc1OC(=O)c1ccccc1C
[18]
  IC50: 5.07 µM (active)

## C(=C\c1ccccc1)/C=N/N1CCN(Cc2ccccc2)CC1
[18]
  IC50: > 50 µM (not active)

## COc1cc(/C=N/NC(=O)c2ccc(Cn3cc([N+](=O)[O-])cn3)o2)cc(Br)c1O
[21]
  IC50: 24 µM (active)
